One molecule from US20070092577A1, “Dietary calcium for reducing the production of reactive oxygen species” (University of Tennessee Research Foundation, priority 2005, published 2007) can be followed below.

Assay [1] deals with NADPH oxidase. In words: NADPH oxidase expression in 3T3-L1 adipocytes. It is filed as cell-based, murine. The conditions noted are these: added to glucose 30 mmol/L, 48 hours; nifedipine 10 μmol/L. How it is done:
3T3-L1 preadipocytes were incubated at a density of 8000 cells/cm^2 (10 cm^2 dish) and grown in Dulbecco's modified Eagle's medium (DMEM) containing 10% FBS and antibiotics (adipocyte medium) at 37° C. in 5% CO2 in air. Confluent preadipocytes were induced to differentiate with a standard differentiation medium consisting of DMEM-F 10 (1:1, vol/vol) medium supplemented with 1% FBS, 1 μM dexamethasone, IBMX (0.5 mM) and antibiotics (1% Penicillin-Streptomycin). Preadipocytes were maintained in this differentiation medium for 3 days and subsequently cultured in adipocyte medium. Cultures were re-fed every 2-3 days to allow 90% of cells to reach full differentiation before conducting chemical treatment. Chemicals were freshly diluted in adipocyte medium before treatment. […] Cell viability was measured via trypan blue exclusion. Adipocyte 18s, cyclin A, NADPH oxidase, and UCP2 were quantitatively measured using a Smart Cycler Real Time PCR System (Cepheid, Sunnyvale, Calif.) with a TaqMan 1000 Core Reagent Kit (Applied Biosystems, Branchburg, N.J.). […] Reactions of quantitative RT-PCR for standards and unknown samples were also performed according to the instructions of Smart Cycler System (Cepheid, Sunnyvale, Calif.) and TaqMan Real Time PCR Core Kit (Applied Biosystems, Branchburg, N.J.). The mRNA quantitation for each sample was further normalized using the corresponding 18s quantitation.

In assay [2] the test system is CD14. In words: CD14 expression in human adipocytes. The note with it: calcitriol 10 nmol/L, 48 hours; p=0.008. Type of assay: cell-based. The text has this:
Cell culture: Human preadipocytes used in this study were supplied by Zen-Bio (Research Triangle, N.C.). Preadipocytes were inoculated in DMEM/Ham's F-10 medium (DMEM-F10) (1:1, vol/vol) containing 10% FBS, 15 mmol/L HEPES, and antibiotics at a density of 30,000 cells/cm^2. Confluent monolayers of preadipocytes were induced to differentiate with a standard differentiation medium consisting of DMEM-F 10 (1:1, vol/vol) medium supplemented with 15 mmol/L HEPES, 3% FBS, 33 μmol/L biotin, 17 μmol/L pantothenate, 100 nmol/L insulin, […] methylisobutylxanthine, 1 μmol/L dexamethasone, 1 μmol/L BRL49653, and antibiotics. […]
Cells were washed with fresh adipocyte medium, re-fed with medium containing the indicated treatments, and incubated at 37° C. in 5% CO2 for 48 hours before analysis. Cell viability was measured via trypan blue exclusion.
Adipocyte and muscle 18s, CD14, TNFα, MIP, M-CSF, IL-6 and MCP-1 were quantitatively measured using a Smart Cycler Real Time PCR System (Cepheid, Sunnyvale, Calif.) with a TaqMan 1000 Core Reagent Kit (Applied Biosystems, Branchburg, N.J.). […] Reactions of quantitative RT-PCR for standards and unknown samples were also performed according to the instructions of Smart Cycler System (Cepheid, Sunnyvale, Calif.) and TaqMan Real Time PCR Core Kit (Applied Biosystems, Branchburg, N.J.). […]

Assay [3] concerns M-CSF. In words: M-CSF expression in 3T3-L1 adipocytes. It is filed as cell-based, mouse. The note with it: calcitriol 10 nmol/L, 48 hours. The procedure: RAW 264 macrophages and 3T3-L1 preadipocytes (American Type Culture Collection) were incubated at a density of 8000 cells/cm2 (10 cm2 dish) and grown in Dulbecco's modified Eagle's medium (DMEM) containing 10% FBS and antibiotics (adipocyte medium) at 37° C. in 5% CO2 in air. Confluent 3T3-L1 preadipocytes were induced to differentiate with a standard differentiation medium consisting of DMEM-F10 (1:1, vol/vol) medium supplemented with 1% FBS, 1 μM dexamethasone, IBMX (0.5 mM) and antibiotics (1% Penicillin-Streptomycin). Preadipocytes were maintained in this differentiation medium for 3 days and subsequently cultured in adipocyte medium. […]
Cell viability was measured via trypan blue exclusion.
Adipocyte and muscle 18s, CD14, TNFα, MIP, M-CSF, IL-6 and MCP-1 were quantitatively measured using a Smart Cycler Real Time PCR System (Cepheid, Sunnyvale, Calif.) with a TaqMan 1000 Core Reagent Kit (Applied Biosystems, Branchburg, N.J.). […] Reactions of quantitative RT-PCR for standards and unknown samples were also performed according to the instructions of Smart Cycler System (Cepheid, Sunnyvale, Calif.) and TaqMan Real Time PCR Core Kit (Applied Biosystems, Branchburg, N.J.). The mRNA quantitation for each sample was further normalized using the corresponding 18s quantitation.

For assay [4], the system named is 3T3-L1 adipocytes. The experiment in a line: Mouse cytokine antibody array of culture medium. Type of assay: cell-based. How it is done:
RAW 264 macrophages and 3T3-L1 preadipocytes (American Type Culture Collection) were incubated at a density of 8000 cells/cm2 (10 cm2 dish) and grown in Dulbecco's modified Eagle's medium (DMEM) containing 10% FBS and antibiotics (adipocyte medium) at 37° C. in 5% CO2 in air. Confluent 3T3-L1 preadipocytes were induced to differentiate with a standard differentiation medium consisting of DMEM-F10 (1:1, vol/vol) medium supplemented with 1% FBS, 1 μM dexamethasone, IBMX (0.5 mM) and antibiotics (1% Penicillin-Streptomycin). Preadipocytes were maintained in this differentiation medium for 3 days and subsequently cultured in adipocyte medium. Cultures were re-fed every 2-3 days to allow 90% cells to reach fully differentiation for 3T3-L1 adipocytes or grow to a confluence for RAW 264 before conducting chemical treatment.
Human adipocytes (Zen-Bio, Inc.), 3T3-L1 adipocytes, RAW264 macrophages were obtained and co-cultured by using transwell inserts with 0.4 μm porous membranes (Corning) to separate adipocytes and macrophages. All data are expressed as mean±SEM. Data were evaluated for statistical significance by analysis of one-way or two-way variance (ANOVA; means with different letter differ, p<0.05).
A TansSignal™ mouse cytokine antibody array kit (Panomics, Fremont, Calif.) was used to detect cytokine protein released in culture medium according to the manufacture's instruction. […]

Turning to `C=C1/C(=C\C=C2/CCC[C@]3(C)[C@@H]([C@H](C)CCCC(C)(C)O)CC[C@@H]23)C[C@@H](O)C[C@@H]1O` [calcitriol, 1, 25-Dihydroxyvitamin D], the “effect on NADPH oxidase expression” value in assay [1] is recorded as “stimulated”. The “increase of CD14 expression” value in assay [2] is given as 33%. Moreover, the “effect on M-CSF expression” value in assay [3] is recorded as “markedly stimulate”. In addition, in assay [4] (co-culture of 3T3-L1 adipocytes with RAW264 macrophages), the “effect on inflammatory cytokine production” value is on record as “further stimulated inflammatory cytokine production”. In addition, in assay [4] (differentiated 3T3-L1 adipocytes cultured alone), the “effect on release of inflammatory cytokine proteins” value was “up-regulated production of multiple inflammatory cytokine proteins”.
